The subject of this experiment is normal rabbits. Briefly: Effect on whole tear secretion of normal rabbits, rate of increase (Test Example 5). In kind it is in vivo, Male Japanese albino rabbits. The settings on record: 30 μl/eye single, 2 hours after the instillation compared with before (0 hour), 4 eyes. On the procedure: Male Japanese albino rabbits were used.
(2) Method of Administration
Ophthalmic solution comprising an active ingredient of the present invention was prepared and used as a test composition.
Each of the compositions was instilled to the eye singly at the amount of 30 μl/eye.
Amount of the Tear Secretion
Before (0 hour) and 2 hours after the instillation, the whole tear secretion was determined.
Under no anesthetization, one edge of the Schirmer's test strip (Showa Yakuhin Kako Co., Ltd.) was inserted into the conjunctival sac of the each test animal. One minute after, the strip was removed and the length of the moisted part was read from the scale provided on the strip to determine the amount of whole tear secretion.
The rate (%) of increased amount of whole tear secretion was calculated at the 2 hours after the instillation compared with the before (0 hour).

For “2-decarboxy-2-(2-carboxyethyl)-13,14-dihydro difluoro-PGE1 [Compound 3]”, under “10 μg/ml ophthalmic solution”, the “Rate of the increased whole tear secretion” value was found to be 52.0%. Consider `CCCC(F)(F)C(=O)C=CCC1C(O)CC(=O)C1CCCCCCC(=O)OC` (centres unmarked) [Compound 1, 15-dehydroxy-13,14-dihydro-14,15-dehydro-16keto-17,17-difluoro-PGE1-methyl ester], for which the “Rate of the increased whole tear secretion” value (30 μg/ml ophthalmic solution) is recorded as 40.7%. As for `CCCCCCC(F)(F)C(=O)CCC1C(O)CC(=O)C1CCCCCCC(=O)O` (centres unmarked) [Compound 2, 13,14-dihydro-15-keto-16,16-difluoro-20-ethyl-PGE1], the “Rate of the increased whole tear secretion” value (10 μg/ml ophthalmic solution) is listed as 52.5%.

Take `CCCCC(F)(F)C(=O)CCC1C(O)CC(O)C1C/C=C\CCCC(=O)OC` (centres unmarked) [Compound 4, 13,14-dihydro-15-keto-16,16-difluoro-PGF2a-Methyl ester]: the “Rate of the increased whole tear secretion” value (3 ug/ml ophthalmic solution) came out at 61.8%.

Take `CCCCC(F)(F)C(=O)CCC1CCC(=O)C1CCCCCCC(=O)O` (centres unmarked) [Compound 5, 11-dehydroxy-13,14-dihydro-15-keto-16,16-difluoro-PGE1]: the “Rate of the increased whole tear secretion” value (3 ug/ml ophthalmic solution) came out at 43.5%. For the molecule `CCCCCC(=O)CC[C@H]1[C@H](O)CC(=O)[C@@H]1CCCCCCC(=O)O` [Compound 6, 13,14-dihydro-15-keto-PGE1], the “Rate of the increased whole tear secretion” value (100 μg/ml ophthalmic solution) worked out at 44.0%. With `CCCCCCC(F)(F)C(=O)CCC1C(O)CC(=O)C1CCCCCCCCC(=O)OC(C)C` (centres unmarked) [Compound 7, 2-decarboxy-2-(2-carboxyethyl)-13,14-dihydro 15-keto-16,16-difluoro-20-ethyl-PGE1-isopropyl ester], the “Rate of the increased whole tear secretion” value (2O00 μg/ml ophthalmic solution) amounted to 56.9%.

On to `CCCCC(F)(F)C(=O)CCC1C(O)CC(=O)C1C/C=C\CCCC(=O)O` (centres unmarked) [Compound 8, 13,14-dihydro-15-keto-16,16-difluoro-PGE2], for which, where the note is “1 μg/ml ophthalmic solution”, the “Rate of the increased whole tear secretion” value is 24.8%.

The values above are taken from patent publication US7396946B2, “Compound for treatment of external secretion disorders” (Sucampo AG, priority 1999, dated 2008).
